A short description of series [1]: Visible to ultraviolet absorption spectrum by HPLC with photodiode array detector. The class given is physicochemical. The settings on record: for λmax (absorption maximum): in 30% acetonitrile and 0.5% TFA, spectra 650 nm to 250 nm; for color compared with the compound of formula (II) of Patent Document 3: judged from the longer wavelength of the absorption maximum. As to the method:
The blue pigment (1), the red pigment (2) and the blue pigment (3) were analyzed by HPLC, and their absorption spectra at 650 nm to 250 nm in 30% acetonitrile and 0.5% TFA were measured with a photodiode array detector (see FIGS. 3, 5 and 7).
HPLC was carried out by using a Shodex Asahipak ODP50 column (Showa Denko, 4.6 mm in diameter×25 cm) for the column and isocratic elution of a mobile phase consisting of 30% acetonitrile and 0.5% TFA at a flow rate of 0.6 ml/min. Detection was carried out by measuring the absorption spectra at 650 nm to 250 nm with a photodiode array detector (SPDM10Avp, Shimadzu) and monitoring the chromatogram at A560 nm.

Series [2] is described as follows: Visual observation of color tone of isolated pigments. The class given is physicochemical. An excerpt: The freeze-dried product, the blue pigment (1), the red pigment (2) and the blue pigment (3) obtained in the manner described above were visually observed for color tone.
The blue pigment (1), the red pigment (2) and the blue pigment (3) were visually observed for color tone.

Setting [3] is: freeze-dried product from Lavande variety transfected with plasmid pSPB919 (Example 1).
Where [4] appears, read: pigments from variety WKS82 transfected with plasmid pSPB130 (Example 3).

We go through 3 compounds from patent US9057076B2, “Compounds purified from blue roses” (SUNTORY HOLDINGS LIMITED, priority 2009, dated 2015).

Molecules are shown by their SMILES.

On to `O=C(OC1C(OC(=O)c2cc(O)c(O)c(O)c2)[C@@H]2OC(=O)c3cc(O)c(O)c(O)c3-c3c(cc(Oc4c(-c5cc(O)c(O)c(O)c5)[o+]c5cc(O)cc6c5c4-c4ccc(O)c(O)c4O6)c(O)c3O)C(=O)OCC2O[C@H]1OC(=O)c1cc(O)c(O)c(O)c1)c1cc(O)c(O)c(O)c1` (some centres unmarked) [blue pigment (3)], for which the “λmax (absorption maximum)” value in series [1] amounted to 594 nm. For the same compound, the “color compared with the compound of formula (II) of Patent Document 3” value in series [1] is reported as “deeper blue color”. Besides, the “color tone, visually observed” value in series [2] (setting [3]) and in series [2] (setting [4]) was “deep blue” in each case.
Consider `O=c1oc2c(-c3cc(O)c(O)c(O)c3)[o+]c3cc(O)cc4c3c2c2c(c(O)c(O)cc12)O4` [red pigment (2)], for which, in series [1], the “λmax (absorption maximum)” value stood at 535 nm. The “color tone, visually observed” value in series [2] (setting [3]) and in series [2] (setting [4]) was “deep red” each time.
For the compound `O=C(OC1C(O)OC2COC(=O)c3cc(Oc4c(-c5cc(O)c(O)c(O)c5)[o+]c5cc(O)cc6c5c4-c4c(C(=O)O)cc(O)c(O)c4O6)c(O)c(O)c3-c3c(cc(O)c(O)c3O)C(=O)O[C@H]2C1OC(=O)c1cc(O)c(O)c(O)c1)c1cc(O)c(O)c(O)c1` (some centres unmarked) [blue pigment (1)], the “λmax (absorption maximum)” value in series [1] is given as 593 nm. In addition, the “color compared with the compound of formula (II) of Patent Document 3” value in series [1] is listed as “deeper blue color”. In addition, the “color tone, visually observed” value in series [2] (setting [3]) and in series [2] (setting [4]) was “deep blue” in each case.
